Results reported in US5223507A, “Method of using opioid compounds as delta opioid selective agonist analgesics” (G. D. Searle & Co., priority 1992, dated 1993).
Structures can show the parent of a compound that is named as a salt. Where two headings read alike, the source gives them in different places.

What was measured:
μ opioid receptors = μ opioid receptors (Rattus norvegicus, UniProt P33535); test: Opiate Binding Assay, displacement of 3[H]-DAMGO (μ receptor); details: for Percent Inhibition, mu: at 100 nm, rat forebrain membranes, 3[H]-DAMGO
δ opioid receptors = δ opioid receptors (Rattus norvegicus, UniProt P33533); test: Opiate Binding Assay, displacement of 3[H]-DSLET (δ receptor); details: for Mean IC50 μ/δ Ratio: ratio of mean IC50 values for μ and δ opioid receptors; for Percent Inhibition, delta: rat forebrain membranes, 3[H]-DSLET
mice = test: Phenylbenzoquinone (PBQ) Writhing Assay; format: in vivo, mouse (Charles River male albino mice); details: for ED50: Mus musculus, 0.5 h
Excerpt: The Writhing Assay is one of the most widely-used experimental procedures for measuring the analgesic activity of different narcotic and nonnarcotic analgesic agents, and involves the continuous, chemically-induced pain of visceral origin to an animal, such as a mouse or rat. [Gyires et al., Arch. int. Pharmacodyn, 267, 131-140 (1984); C. Vander Wende et al., Fed. Proc., 15, 494 (1956); Koster et al., Fed. Proc., 18, 412 (1959); and Witken et al., J. PharmacoI. exp. Tger., 133, 400-408 (1961).] Chemicals which may be used to induce this pain include phenylbenzoquinone (PBQ) and acetic acid. As a result of the chemical irritation to the animal, a characteristic stretching and writhing of the animal (dorsiflexion of the animal's back, extension of its hindlimbs and the strong contraction of its abdominal musculature) will generally occur. […] Drugs which reduce the number of writhes of the animal appear to restore the normal nociceptive threshold of the animal.
Charles River male albino mice, weighing 20 to 30 grams were used in this assay.
Thirty minutes after subcutaneous or intragastric administration to ten mice of either 10 mg or 30 mg per kilogram of body weight of a compound of the present invention ("test compound"), […] of body weight of a 0.025% w/v solution of PBQ was injected intraperitoneally into each mouse. Ten mice which were given saline in place of a test compound of the invention were used as a control group.
Five minutes later, each mouse was individually placed into a glass beaker for observation, and the number of writhes occurring during the following ten-minute period was counted.
A test compound was considered to be "active" in this assay (to have produced analgesia in a mouse) if, after the administration of the compound to the mouse, the number of writhes elicited by a mouse injected with PBQ was equal to, or less than, one-half the median number of writhes recorded for the saline-treated control group of mice that day, as described by Taber in "Predictive Value of Analgesic Assays in Mice and Rats," Advances in Biochemical Psychopharmacology, 8, 191 (1974).
The standard initial screening doses of a test compound employed in this assay were 10 and/or 30 […] for both routes of administration.

[1] = po, intragastric, 30 min before PBQ, read-out: PBQ WRITHING ASSAY ED50 (mpk) I.G.
[2] = sc, subcutaneous, 30 min before PBQ, read-out: PBQ WRITHING ASSAY ED50 (mpk) S.C.
[3] = intragastric, 30 min before PBQ
[4] = subcutaneous, screening doses 10 and/or 30 mpk

Chain of δ opioid receptors (P33533 whole entry): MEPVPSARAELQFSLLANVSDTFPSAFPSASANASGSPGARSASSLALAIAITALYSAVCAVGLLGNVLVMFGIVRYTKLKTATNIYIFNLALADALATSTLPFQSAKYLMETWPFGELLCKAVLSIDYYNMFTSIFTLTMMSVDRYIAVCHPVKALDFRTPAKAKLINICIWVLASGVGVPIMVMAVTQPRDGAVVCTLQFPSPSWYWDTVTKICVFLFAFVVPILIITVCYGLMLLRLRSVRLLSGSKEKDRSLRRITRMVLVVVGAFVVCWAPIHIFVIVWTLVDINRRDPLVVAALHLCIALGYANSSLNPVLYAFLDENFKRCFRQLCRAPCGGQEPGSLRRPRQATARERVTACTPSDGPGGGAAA
Chain of μ opioid receptors (P33535 whole entry): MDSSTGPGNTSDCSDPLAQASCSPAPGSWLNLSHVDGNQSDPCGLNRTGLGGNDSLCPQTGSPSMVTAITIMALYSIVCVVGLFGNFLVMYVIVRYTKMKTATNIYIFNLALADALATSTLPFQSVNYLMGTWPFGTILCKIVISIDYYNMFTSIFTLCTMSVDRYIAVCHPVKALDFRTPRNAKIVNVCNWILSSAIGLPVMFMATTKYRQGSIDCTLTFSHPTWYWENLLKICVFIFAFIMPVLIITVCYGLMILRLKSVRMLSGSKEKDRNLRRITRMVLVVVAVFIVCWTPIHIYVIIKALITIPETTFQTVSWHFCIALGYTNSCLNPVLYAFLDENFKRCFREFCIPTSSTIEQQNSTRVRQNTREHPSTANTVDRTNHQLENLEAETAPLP

CN1CC[C@]23c4c5ccc(O)c4O[C@H]2c2[nH]c4ccccc4c2C[C@@]3(O)[C@H]1C5 [I, 5,6,7,8,14,14bβ-Hexahydro-7-methyl-4,8(R,α)-methano-4bS^* -benzofuro[2,3-a]pyrido[4,3-b]carbazole-1, 8aβ(9H)-diol, monohydrochloride] was tested, and the IC50 (μ opioid receptors) was 152 nM, the IC50 (δ opioid receptors) was 2.6 nM and the “Mean IC50 μ/δ Ratio” value (δ opioid receptors) was 58.
Molecule CN1CC[C@]23c4c5ccc(O)c4O[C@H]2c2oc4ccccc4c2C[C@@]3(O)[C@H]1C5 [II, 6,7,8,14bβ-Tetrahydro-7-methyl-4,8(R,α)-methano-4bS^* -5H-bisbenzofuro[3,2-e:2',3'-g]isoquinoline-1, 8aβ(9H)-diol, monohydrochloride] has an ED50 (mice; [1]) of 2.4 mg/kg, an ED50 (mice; [2]) of 0.2 mg/kg and an IC50 (μ opioid receptors) of 93 nM. The IC50 (δ opioid receptors) was 5.4 nM and the “Mean IC50 μ/δ Ratio” value (δ opioid receptors) was 17.
With CN1CC[C@]23c4c5ccc(O)c4O[C@H]2c2[nH]c4c(ccc6ccccc64)c2C[C@@]3(O)[C@H]1C5 [III, 5,6,7,8,16, 16bβ-Hexahydro-7-methyl-4,8(R, α)-methano-4BS^* -benzo[i]benzofuro [2,3-a]pyrido[4,3-b]carbazole-1,8aβ(9H)-diol, monohydrochloride] the “PBQ WRITHING ASSAY ED50 (mpk) I.G.” value (mice; [3]) was “inactive”, the “Number of mice in 10 exhibiting inhibition of writhing, S.C.” value (mice; [4]) was 5/10 and the IC50 (μ opioid receptors) was 550 nM. The IC50 (δ opioid receptors) was 20.8 nM and the “Mean IC50 μ/δ Ratio” value (δ opioid receptors) was 26.
In the case of COc1ccc2c3c1O[C@H]1c4oc5ccccc5c4C[C@@]4(OC)[C@@H](C2)N(C)CC[C@]314 [IV, 2 6,7,8,14bβ-Hexahydro-1,8aβ-(9H)-dimethoxy-7-methyl-4,8(R,α)-methano-4bS^* -5H-bisbenzofuro [3,2-e:2',3'-g]isoquinoline], the ED50 (mice; [1]) is reported as 2.2 mg/kg, the “Number of mice in 10 exhibiting inhibition of writhing, S.C.” value (mice; [4]) is reported as 6/10 and the IC50 (μ opioid receptors) is reported as 21200 nM. The IC50 (δ opioid receptors) was 43.5 nM and the “Mean IC50 μ/δ Ratio” value (δ opioid receptors) was 446.
With C=CCN1CC[C@]23c4c5ccc(O)c4O[C@H]2c2oc4ccccc4c2C[C@@]3(O)[C@H]1C5 [IX, 6,7,8,14β-Tetrahydro-7-(2-propenyl)-4,8(R,α)-methano-4bS^* -5H-bisbenzofuro[3,2-e:2',3'-g] isoquinoline-1,8aβ(9H)-diol, monohydrochloride] the ED50 (mice; [1]) was 3.9 mg/kg, the ED50 (mice; [2]) was 2.8 mg/kg and the IC50 (μ opioid receptors) was 236 nM. For the same molecule, the IC50 (δ opioid receptors) was 0.21 nM and the “Mean IC50 μ/δ Ratio” value (δ opioid receptors) was 1100.
In the case of COc1ccc2c3c1O[C@H]1c4oc5ccccc5c4C[C@@]4(O)[C@@H](C2)N(C)CC[C@]314 [V, 6,7,8,14bβ-Tetrahydro-1-methoxy-7-methyl-4,8(R,α)-methano-4bS^* -5H-bisbenzofuro [3,2-e:2',3'-g]isoquinolin-8aβ(9H)-ol], the ED50 (mice; [1]) is reported as 2.7 mg/kg, the “PBQ WRITHING ASSAY ED50 (mpk) S.C.” value (mice; subcutaneous, 30 min before PBQ) is reported as “inactive” and the “Percent Inhibition, mu” value (μ opioid receptors) is reported as 2%. For the same molecule, the “Percent Inhibition, delta” value (δ opioid receptors; at 100 nm) was 72%.
For CN1CC[C@]23c4c5ccc(O)c4O[C@H]2c2[nH]c4c(Br)cc(Br)cc4c2C[C@@]3(O)[C@H]1C5 [VI, 11,13-Dibromo-5,6,7,8,14,14bβ-hexahydro-7-methyl-4,8(R,α)-methano-4bS^* -benzofuro[2,3-a]pyrido[4,3-b] carbazole-1,8aβ(9H)-diol, monohydrochloride], the “PBQ WRITHING ASSAY ED50 (mpk) I.G.” value (mice; [3]) was “inactive”, the “Number of mice in 10 exhibiting inhibition of writhing, S.C.” value (mice; [4]) was 6/10 and the “Percent Inhibition, delta” value (δ opioid receptors; 10 nm) was 11%.
CN1CC[C@]23c4c5ccc(O)c4O[C@H]2c2[nH]c4c(Br)cccc4c2C[C@@]3(O)[C@H]1C5 [VII, 13-Bromo-5,6,7,8,14bβ-hexahydro-7-methyl-4,8(R,α)-methano-4bS^* -benzofuro[2,3-a]pyrido [4,3-b]carbazole-1,8aβ(9H)-diol, monohydrochloride] was tested, and the ED50 (mice; [1]) was 2.3 mg/kg, the ED50 (mice; [2]) was 0.9 mg/kg and the IC50 (μ opioid receptors) was 253 nM. For the same molecule, the IC50 (δ opioid receptors) was 10 nM and the “Mean IC50 μ/δ Ratio” value (δ opioid receptors) was 25.3.
For C=CCN1CC[C@]23c4c5ccc(O)c4O[C@H]2c2[nH]c4ccccc4c2C[C@@]3(O)[C@H]1C5 [VIII, 5,6,7,8,14,14bβ-Hexahydro-7(2-propenyl)-4,8 (R,α)-methano-4bS^* -benzofuro[2,3-a]pyrido[4,3-b] carbazole-1,8aβ(9H)-diol, monohydrochloride], the IC50 (μ opioid receptors) was 99 nM, the IC50 (δ opioid receptors) was 1.4 nM and the “Mean IC50 μ/δ Ratio” value (δ opioid receptors) was 71.
In the case of C=CCN1CC[C@]23c4c5ccc(O)c4O[C@H]2c2[nH]c4c(Br)cccc4c2C[C@@]3(O)[C@H]1C5 [X, 13-Bromo-5,6,7,8,14, 14bβ-hexahydro-7-(2-propenyl)-4,8(R,α)-methano-4bS^* -benzofuro [2,3-a]pyrido[4,3-b]carbazole-1,8aβ(9H)-diol monohydrochloride], the “Number of mice in 10 exhibiting inhibition of writhing, I.G.” value (mice; intragastric, screening doses 10 and/or 30 mpk) is reported as 5/10, the “Number of mice in 10 exhibiting inhibition of writhing, S.C.” value (mice; [4]) is reported as 5/10 and the IC50 (μ opioid receptors) is reported as 3900 nM. The IC50 (δ opioid receptors) was 11.1 nM and the “Mean IC50 μ/δ Ratio” value (δ opioid receptors) was 350.
With CN1CC[C@]23c4c5ccc(O)c4O[C@H]2c2oc4ccccc4c2C[C@H]3[C@H]1C5 [XI, 6,7,8,8a,9,14bβ-Hexahydro-7-methyl-4,8(R,α)-methano-4bs^* -5H-bisbenzofuro[3,2-e:2',3'-g] isoquinolin-1-ol, monohydrochloride] the ED50 (mice; [2]) was 2 mg/kg, the “PBQ WRITHING ASSAY ED50 (mpk) I.G.” value (mice; [3]) was “inactive” and the IC50 (μ opioid receptors) was 24 nM. For the same molecule, the IC50 (δ opioid receptors) was 3.5 nM and the “Mean IC50 μ/δ Ratio” value (δ opioid receptors) was 6.9.
For CN1CC[C@]23c4c5ccc(O)c4O[C@H]2c2[nH]c4ccccc4c2C[C@H]3[C@H]1C5 [XII, 5,6,7,8,8a,9,14, 14bβ-Octahydro-7-methyl-4,8(R,α)-methano-4bS^* -benzofuro[2,3-a] pyrido[4,3-b]carbazol-1-ol, monohydrochloride], the IC50 (μ opioid receptors) was 58 nM, the IC50 (δ opioid receptors) was 4.9 nM and the “Mean IC50 μ/δ Ratio” value (δ opioid receptors) was 11.8.
With CN1CC[C@]23c4c5ccc(O)c4O[C@H]2c2[nH]c4c(Br)cccc4c2C[C@H]3[C@H]1C5 [XIII, 13-Bromo-5,6,7,8,8a,9,14,14bβ-octahydro-7-methyl-4,8(R,α)-methano-4bS^* -benzofuro [2,3-a]pyrido[4,3-b]carbazol-1-ol, monohydrochloride] the “PBQ WRITHING ASSAY ED50 (mpk) I.G.” value (mice; [3]) was “inactive”, the “Number of mice in 10 exhibiting inhibition of writhing, S.C.” value (mice; [4]) was 4/10 and the IC50 (μ opioid receptors) was 265 nM. For the same molecule, the IC50 (δ opioid receptors) was 52 nM and the “Mean IC50 μ/δ Ratio” value (δ opioid receptors) was 5.1.
In the case of CCCN1CC[C@]23c4c5ccc(O)c4O[C@H]2c2oc4ccccc4c2C[C@@]3(O)[C@H]1C5 [XIV, 6,7,8,14bβ-Tetrahydro-7-propyl-4,8(R,α)-methano-4bS^* -5H-bisbenzofuro[3,2-e:2',3'-g] isoquinoline-1,8aβ(9H)-diol, monohydrochloride], the IC50 (μ opioid receptors) is reported as 200 nM, the IC50 (δ opioid receptors) is reported as 7.7 nM and the “Mean IC50 μ/δ Ratio” value (δ opioid receptors) is reported as 26.
With CC(=O)O[C@@]12Cc3c([nH]c4ccccc34)[C@@H]3Oc4c(O)ccc5c4[C@@]31CCN(C)[C@@H]2C5 [XIX, 5,6,7,8,14,14bβ-Hexahydro-7-methyl-4,8(R,α-methano-4bS^* -benzofuro[2,3-a]pyrido[4,3-b]carbazole-1,8aβ-9H)-dio1,8a-acetate monohydrochloride] the IC50 (μ opioid receptors) was 769 nM, the IC50 (δ opioid receptors) was 1 nM and the “Mean IC50 μ/δ Ratio” value (δ opioid receptors) was 769.
For Oc1ccc2c3c1O[C@H]1c4oc5ccccc5c4C[C@@]4(O)[C@@H](C2)N(CC2CCC2)CC[C@]314 [XV, 6,7,8,14bβ-Tetrahydro-7-(cyclobutylmethyl)-4,8 (R,α)-methano-4bS^* -5H-bisbenzofuro [3,2-e:2',3'-g]isoquinoline-1,8aβ(9H)-diol, monohydrochloride], the IC50 (μ opioid receptors) was 690 nM, the IC50 (δ opioid receptors) was 5.1 nM and the “Mean IC50 μ/δ Ratio” value (δ opioid receptors) was 135.
For CC(=O)Oc1ccc2c3c1O[C@H]1c4[nH]c5ccccc5c4C[C@@]4(O)[C@@H](C2)N(C)CC[C@]314 [XVII, 5,6,7,8,14,14bβ-Hexahydro-7-methyl-4,8 (R,α)-methano-4bS^* -benzofuro[2,3-a] pyrido[4,3-b]carbazole-1,8aβ(9H)-diol, 1-acetate], the IC50 (μ opioid receptors) was 1300 nM, the IC50 (δ opioid receptors) was 34 nM and the “Mean IC50 μ/δ Ratio” value (δ opioid receptors) was 38.
In the case of CC(=O)Oc1ccc2c3c1O[C@H]1c4[nH]c5ccccc5c4C[C@@]4(OC(C)=O)[C@@H](C2)N(C)CC[C@]314 [XVIII, 5,6,7,8,14,14bβ-Hexahydro-7-methyl-4,8(R,α)-methano-4bS^* -benzofuro[2,3-a] pyrido[4,3-b]carbazole-1,8aβ-9H)-diol, diacetate, monohydrochloride], the “Percent Inhibition, mu” value (μ opioid receptors) is reported as 72% and the IC50 (δ opioid receptors) is reported as 66.4 nM.
